What all share (type): cell-based
In one assay the test system is A431 cells. Put plainly: Cell growth inhibition (CellTiter-Glo, 3 days) in A431. The settings on record: Homo sapiens, A-431, 72 h, 3 days after administration. Summed up: (§1)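 Growth inhibition was scored by CellTiter-Glo luminescence after 3-day compound exposure at various concentrations. Cells were plated at 5000/well the day before treatment: A431 in DMEM and HCC827 in RPMI, each with 10% FBS.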

In assay [1] the test system is HCC827-SVD cells (human EGFR exon 20 insertion mutant D770_N771 insSVD). In words: Cell growth inhibition (CellTiter-Glo, 3 days) in HCC827-SVD. The settings on record: 72 h, 3 days after administration. Summed up:
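HCC827 cells carrying lentiviral codon-optimized EGFR D770_N771 insSVD, with endogenous EGFR knocked out by CRISPR (single clone), seeded at 5000 cells/well in RPMI with 10% FBS. Viability read by CellTiter-Glo luminescence.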

For the next assay, the system named is HCC827 cells. In words: Cell growth inhibition (CellTiter-Glo, 3 days) in HCC827. The settings on record: Homo sapiens, 72 h, 3 days after administration. Summed up: as §1
Assay [2] concerns HCC827-YVMA cells (human ERBB2 exon20 insertion mutant A775_G776ins YVMA). Put plainly: Cell growth inhibition (CellTiter-Glo, 3 days) in HCC827-YVMA. The settings on record: 72 h, 3 days after administration. Summed up:
(§2)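 HCC827 cells lentivirally transduced with codon-optimized ASV or YVMA insertion mutants were seeded at 5000 cells/well in RPMI with 10% FBS and incubated overnight. Compound was added at various concentrations from a 10× stock in medium, with 3 days' incubation. Viability read by CellTiter-Glo luminescence.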

Assay [3] has as its system HCC827-ASV cells (human EGFR exon 20 insertion mutant A769_D770insASV). In words: Cell growth inhibition (CellTiter-Glo, 3 days) in HCC827-ASV. The settings on record: 72 h, 3 days after administration. The method, boiled down: as §2

Each structure is given as a SMILES string. Some results are limits rather than exact numbers.

On to `C=CC(=O)N1CCC(Nc2cc3c(Nc4ccc(Oc5ccnc(N6CCOC(C)(C)C6)c5)cc4F)ncnc3cc2OC)CC1` [Example 138, 1-(4-((4-((4-((2-(2,2-dimethylmorpholino)pyridin-4-yl)oxy)-2-fluorophenyl)amino)-7-methoxyquinazolin-6-yl)amino)piperidin-1-yl)prop-2-en-1-one], for which the GI50 with A431 cells was no less than 1 µM; in assay [1] it was less than 0.03 µM; in the assay on HCC827 cells, 0.1 to 0.3 µM; in assay [2], less than 0.03 µM; in assay [3], less than 0.03 µM.

As to `C=CC(=O)N1CCC(Nc2cc3c(Nc4ccc(Oc5ccn(-c6cnc(OC)nc6)n5)cc4F)ncnc3cc2OC)CC1` [Compound 1, 1-(4-((4-((2-fluoro-4-((1-(2-methoxypyrimidin-5-yl)-1H-pyrazol-3-yl)oxy)phenyl)amino)-7-methoxyquinazolin-6-yl)amino)piperidin-1-yl)prop-2-en-1-one], the 50% growth inhibitory concentration (GI50) fell in the range of 0.3 to 0.6 µM in the assay on A431 cells; 0.06 to 0.1 µM in assay [1]; 0.3 to 0.6 µM in the assay with HCC827 cells; 0.06 to 0.1 µM in assay [2]; 0.03 to 0.06 µM in assay [3].

Regarding `C=CC(=O)N1CCC(Nc2cc3c(Nc4ccc(Oc5ccnc(N6CC7CCCC7C6)c5)cc4F)ncnc3cc2OC)CC1` (stereo not shown) [Example 239, 1-(4-((4-((2-fluoro-4-((2-(hexahydrocyclopenta [c]pyrrol-2(1H)-yl)pyridin-4-yl)oxy)phenyl)amino)-7-methoxyquinazolin-6-yl)amino)piperidin-1-yl)prop-2-en-1-one], the GI50 in the assay on A431 cells was 0.3 to 0.6 µM; in assay [1], less than 0.03 µM; with HCC827 cells it was less than 0.03 µM; in assay [2] it was 0.06 to 0.1 µM; in assay [3], 0.06 to 0.1 µM.

As for `C=CC(=O)N1CCC(Nc2cc3c(Nc4ccc(Oc5ccnc(N6CCOCC6)c5)cc4F)ncnc3cc2OC)CC1` [Compound 35, 1-(4-((4-((2-fluoro-4-((2-morpholinopyridin-4-yl)oxy)phenyl)amino)-7-methoxyquinazolin-6-yl)amino)piperidin-1-yl)prop-2-en-1-one], the GI50 with A431 cells was no less than 1 µM; in assay [1], less than 0.03 µM; in the assay on HCC827 cells, 0.1 to 0.3 µM; in assay [2] it was less than 0.03 µM; in assay [3], less than 0.03 µM.

Consider `C=CC(=O)N1CCC(Nc2cc3c(Nc4ccc(Oc5ccn(-c6ccc(N(C)C)nn6)n5)cc4F)ncnc3cc2OC)CC1` [Example 48, 1-(4-((4-((4-((1-(6-(dimethylamino)pyridazin-3-yl)-1H-pyrazol-3-yl)oxy)-2-fluorophenyl)amino)-7-methoxyquinazolin-6-yl)amino)piperidin-1-yl)prop-2-en-1-one], for which the GI50 lay within 0.06 to 0.1 µM in the assay with A431 cells; 0.03 to 0.06 µM in assay [1]; 0.06 to 0.1 µM in the assay with HCC827 cells; 0.03 to 0.06 µM in assay [2]; 0.03 to 0.06 µM in assay [3].

Take `C=CC(=O)N1CCC(Nc2cc3c(Nc4ccc(Oc5nc(-c6ccc(C)nc6)cs5)cc4F)ncnc3cc2OC)CC1` [Compound 6, 1-(4-((4-((2-fluoro-4-((4-(6-methylpyridin-3-yl)thiazol-2-yl)oxy)phenyl)amino)-7-methoxyquinazolin-6-yl)amino)piperidin-1-yl)prop-2-en-1-one]: the concentration for 50% growth inhibition (GI50) was 0.3 to 0.6 µM with A431 cells; 0.3 to 0.6 µM in assay [1]; no less than 1 µM in the assay on HCC827 cells; 0.3 to 0.6 µM in assay [2]; 0.3 to 0.6 µM in assay [3].

On to `C=CC(=O)N1CCC(Nc2cc3c(Nc4ccc(Oc5ccn(-c6cnc(C)c(F)c6)n5)cc4F)ncnc3cc2OC)CC1` [Compound 2, 1-(4-((4-((2-fluoro-4-((1-(5-fluoro-6-methylpyridin-3-yl)-1H-pyrazol-3-yl)oxy)phenyl)amino)-7-methoxyquinazolin-6-yl)amino)piperidin-1-yl)prop-2-en-1-one], for which the GI50 in the assay with A431 cells was 0.06 to 0.1 µM; in assay [1] it was less than 0.03 µM; with HCC827 cells it was less than 0.03 µM; in assay [2], less than 0.03 µM; in assay [3], less than 0.03 µM.

With `C=CC(=O)N1CCC(Nc2cc3c(Nc4ccc(Oc5ccnc(N6CCO[C@H](CO)C6)c5)cc4F)ncnc3cc2OC)CC1` [Example 125, (S)-1-(4-((4-((2-fluoro-4-((2-(2-(hydroxymethyl)morpholino)pyridin-4-yl)oxy)phenyl)amino)-7-methoxyquinazolin-6-yl)amino)piperidin-1-yl)prop-2-en-1-one], the concentration for 50% growth inhibition (GI50) with A431 cells is no less than 1 µM; in assay [1] it was 0.3 to 0.6 µM; in the assay on HCC827 cells it was no less than 1 µM; in assay [2], 0.1 to 0.3 µM; in assay [3], 0.1 to 0.3 µM.

With `C=CC(=O)N1CCC(Nc2cc3c(Nc4ccc(Oc5ccnc(CN6CCOCC6)c5)cc4F)ncnc3cc2OC)CC1` [Compound 210, 1-(4-((4-((2-fluoro-4-((2-(morpholinomethyl)pyridin-4-yl)oxy)phenyl)amino)-7-methoxyquinazolin-6-yl)amino)piperidin-1-yl)prop-2-en-1-one], the GI50 with A431 cells was 0.6 to 1 µM; in assay [1], 0.06 to 0.1 µM; with HCC827 cells it was 0.3 to 0.6 µM; in assay [2], less than 0.03 µM; in assay [3], 0.03 to 0.06 µM.

`C=CC(=O)N1CCC(Nc2cc3c(Nc4ccc(Oc5ccnc(N(C)C)c5)cc4F)ncnc3cc2OC)CC1` [Example 103, 1-(4-((4-((4-((2-(dimethylamino)pyridin-4-yl)oxy)-2-fluorophenyl)amino)-7-methoxyquinazolin-6-yl)amino)piperidin-1-yl)prop-2-en-1-one]: the concentration for 50% growth inhibition (GI50) is 0.1 to 0.3 µM in the assay on A431 cells; less than 0.03 µM in assay [1]; 0.03 to 0.06 µM with HCC827 cells; less than 0.03 µM in assay [2]; less than 0.03 µM in assay [3].

For `C=CC(=O)N1CCC(Nc2cc3c(Nc4ccc(Oc5ccnc(N6CCC(CO)(CO)C6)c5)cc4F)ncnc3cc2OC)CC1` [Example 155, 1-(4-((4-((4-((2-(3,3-bis(hydroxymethyl)pyrrolidin-1-yl)pyridin-4-yl)oxy)-2-fluorophenyl)amino)-7-methoxyquinazolin-6-yl)amino)piperidin-1-yl)prop-2-en-1-one], the GI50 in the assay on A431 cells is no less than 1 µM; in assay [1] it was 0.1 to 0.3 µM; in the assay on HCC827 cells it was no less than 1 µM; in assay [2] it was 0.1 to 0.3 µM; in assay [3], 0.1 to 0.3 µM.

Turning to `C=CC(=O)N1CCC(Nc2cc3c(Nc4ccc(Oc5ccnc(N6CC[C@@H](O)C6)c5)cc4F)ncnc3cc2OC)CC1` [Example 173, (R)-1-(4-((4-((2-fluoro-4-((2-(3-hydroxypyrrolidin-1-yl)pyridin-4-yl)oxy)phenyl)amino)-7-methoxyquinazolin-6-yl)amino)piperidin-1-yl)prop-2-en-1-one], the GI50 is no less than 1 µM with A431 cells; 0.1 to 0.3 µM in assay [1]; 0.3 to 0.6 µM in the assay with HCC827 cells; 0.1 to 0.3 µM in assay [2]; 0.06 to 0.1 µM in assay [3].

In the case of `C=CC(=O)N1CCC(Nc2cc3c(Nc4ccc(Oc5ccnc(-c6nccs6)c5)cc4F)ncnc3cc2OC)CC1` [Example 43, 1-(4-((4-((2-fluoro-4-((2-(thiazol-2-yl)pyridin-4-yl)oxy)phenyl)amino)-7-methoxyquinazolin-6-yl)amino)piperidin-1-yl)prop-2-en-1-one], the GI50 with A431 cells was 0.3 to 0.6 µM; in assay [1], less than 0.03 µM; with HCC827 cells, 0.06 to 0.1 µM; in assay [2], less than 0.03 µM; in assay [3] it was less than 0.03 µM.

`C=CC(=O)N1CCC(Nc2cc3c(Nc4ccc(Oc5ccnc(N6CC7CC7C6)c5)cc4F)ncnc3cc2OC)CC1` (stereo not shown) [Example 199, 1-(4-((4-((4-((2-(3-azabicyclo[3.1.0]hexan-3-yl)pyridin-4-yl)oxy)-2-fluorophenyl)amino)-7-methoxyquinazolin-6-yl)amino)piperidin-1-yl)prop-2-en-1-one]: the GI50 was 0.06 to 0.1 µM in the assay with A431 cells; less than 0.03 µM in assay [1]; 0.1 to 0.3 µM in the assay with HCC827 cells; less than 0.03 µM in assay [2]; less than 0.03 µM in assay [3].

Turning to `C=CC(=O)N1CCC(Nc2cc3c(Nc4ccc(Oc5ccnc(NC6CCCC6)c5)cc4F)ncnc3cc2OC)CC1` [Example 246, 1-(4-((4-((4-((2-(cyclopentylamino)pyridin-4-yl)oxy)-2-fluorophenyl)amino)-7-methoxyquinazolin-6-yl)amino)piperidin-1-yl)prop-2-en-1-one], the GI50 with A431 cells is 0.1 to 0.3 µM; in assay [1], less than 0.03 µM; with HCC827 cells, 0.03 to 0.06 µM; in assay [2], less than 0.03 µM; in assay [3], less than 0.03 µM.

As for `C=CC(=O)N1CCC(Nc2cc3c(Nc4ccc(Oc5ccnc(N6C[C@H]7C[C@@H]6CO7)c5)cc4F)ncnc3cc2OC)CC1` [Example 134, 1-(4-((4-((4-((2-((1R,4R)-2-oxa-5-azabicyclo[2.2.1]heptan-5-yl)pyridin-4-yl)oxy)-2-fluorophenyl)amino)-7-methoxyquinazolin-6-yl)amino)piperidin-1-yl)prop-2-en-1-one], the concentration for 50% growth inhibition (GI50) was 0.6 to 1 µM in the assay with A431 cells; 0.03 to 0.06 µM in assay [1]; 0.1 to 0.3 µM with HCC827 cells; 0.03 to 0.06 µM in assay [2]; less than 0.03 µM in assay [3].

Take `C=CC(=O)N1CCC(Nc2cc3c(Nc4ccc(Oc5ccnc(CN6CCCC6)c5)cc4F)ncnc3cc2OC)CC1` [Example 209, 1-(4-((4-((2-fluoro-4-((2-(pyrrolidin-1-ylmethyl)pyridin-4-yl)oxy)phenyl)amino)-7-methoxyquinazolin-6-yl)amino)piperidin-1-yl)prop-2-en-1-one]: the GI50 in the assay on A431 cells lay in the range of 0.6 to 1 µM; in assay [1] it was 0.1 to 0.3 µM; in the assay on HCC827 cells, 0.1 to 0.3 µM; in assay [2], 0.06 to 0.1 µM; in assay [3] it was 0.1 to 0.3 µM.

Source of the values: patent US20240398805A1, “QUINAZOLINE DERIVED COMPOUNDS AS EGFR INHIBITORS AND THEIR USES THEREOF” (ACCUTAR BIOTECHNOLOGY INC., priority 2021, published 2024).
